Reference: patent US8268775B2, “Macrolactone derivatives” (Sanofi, priority 2007, dated 2012)
≈ marks a conversion by molar mass, not a printed value.

Test system: Candida albicans FH 2173
Test: Antifungal activity against Candida albicans, bouillon dilution method (microdilution)
Assay type: cell-based
Details: FH2173, growth inhibition by 50%, Mueller Hinton broth, 37° C., 20 hours, absorption at 590 nm
Procedure: For the detection of the antifungal activity of rapidly growing, aerobic causative organisms, the bouillon dilution method (microdilution) according to a procedure of the CLSI (Clinical and Laboratory Standards Institute, M7-A7, Vol. 26, No. 2) is used. The IC50 value was determined. This is the concentration of an active substance which is necessary in order to inhibit the growth of the test organism Candida albicans by 50%.
A stock solution of 1000 μg/ml of active substance [for example the compound of the formula (II) or the compound of the formula (IV)] in methanol was prepared. The test strain (Candida albicans FH 2173) was stored at −80° C. The inoculum was prepared from a fresh, liquid preculture. The preculture was prepared from a bead of the material stored at −80° C. and 30 ml of nutrient medium (Sabourad dextrose broth, Difco) and incubated at 37° C. and 180 revolutions per minute for 24 hours. The inoculum is to be adjusted such that after the inoculation of the test container the necessary number of colony-forming units is achieved. For this, the inoculum was adjusted to a value of 10^7 CFU/ml (CFU: colony forming units) by means of a photometer at a wavelength of 590 nm. […] The exact colony count was determined by means of surface culture. […] The microtiter plates were read with the aid of a photometer at a wavelength of 590 nm by measurement of the absorption. […]

Row | SMILES | IC50
1 | CCC(C)C1C(=O)NC(Cc2cc(Cl)c(O)c(Cl)c2)C(=O)NC(C(C)(C)O)C(=O)OC(c2ccccc2)C(C)/C=C/C=C(\C)C(OC)CC2OC2(C)C(=O)N1C (centres unmarked) [Compound (II)] | 0.06 µg/mL (≈ 0.0735 µM)
2 | CCC(C)C1C(=O)NC(Cc2cc(Cl)c(OC)c(Cl)c2)C(=O)NC(C(C)(C)O)C(=O)OC(c2ccccc2)C(C)/C=C/C=C(\C)C(OC)CC2OC2(C)C(=O)N1C (centres unmarked) [Compound (IV)] | 0.41 µg/mL (≈ 0.493 µM)
